Test results as given in PMC6514909, “Synthesis of New Derivatives of Benzofuran as Potential Anticancer Agents” (Molecules, 2019).
“Also recorded” adds a separate entry of the source. Values belong to the molecule of their own block, whether it stands above or below them.

How the values were obtained:
[1] = tested on: HeLa (human cervix carcinoma) cells; experiment: MTT cytotoxicity assay, HeLa; type: cell-based; settings: for IC50: Homo sapiens, HeLa, 48 h incubation with cells, MTT; for reduction of viability of HeLa cells: initial screening, 100 μM, 48 h
Protocol: (§1) Fourteen new benzofuran derivatives were tested for their cytotoxic properties in K562, MOLT-4 (leukemia, suspension cells), HeLa (cervix carcinoma, adherent cells), and normal endothelial cells (HUVEC). First, we measured the viability of cells after 48 h incubation with the given compound at the concentration of 100 μM. Next, for compounds that reduced cancer cells survival for more than 50%, we determined IC50 values. Cells that were exposed to 1% DMSO (a vehicle) served as the control with 100% survival. Cells treated with 1 µM staurosporine served as the internal control of the cytotoxicity experiments.
(§2) Human umbilical vein endothelial cells (Life Technologies, Waltham, MA, USA) were cultured (according to the manufacturer instructions) in Medium 200 supplemented with Low Serum Growth Supplement. 1 × 10^4 HUVEC cells were seeded on each well on a 96-well plate (Nunc). The HeLa (human cervix carcinoma) K562 and MOLT-4 (leukemia) cells were cultured in RPMI 1640 medium supplemented with antibiotics and 10% fetal calf serum (HeLa, K562) in a 5% CO2-95% air atmosphere. 7 × 10^3 HeLa, K562, or MOLT-4 cells were seeded on each well on 96-well plate (Nunc). 24 h later cells were treated with the test compounds and then incubated for an additional 48 hours. Stock solutions of test compounds were freshly prepared in DMSO (dimethylsulfoxide). The final concentrations of compounds that were tested in the cell cultures were: 2 × 10^−1, 1 ×10^−1, 5 × 10^−2, 1 × 10^−2, 1 × 10^−3 and 1 × 10^−4 mM. The concentration of DMSO in the cell culture medium was 1%.
(§3) The values of IC50 (the concentration of test compound that is required to reduce the cell survival fraction to 50% of the control) were calculated from dose-response curves and used as a measure of cellular sensitivity to a given treatment.
(§4) The MTT [3-(4,5-dimethylthiazol-2-yl)-2,5-diphenyltetrazolium bromide; Sigma, St. Louis, MO, USA] assay determined the cytotoxicity of all the compounds, as described previously. Briefly, after 24 h or 48 h of incubation with the drug, the cells were treated with the MTT reagent, and incubation was continued for 2 h. MTT-formazan crystals were dissolved in 20% SDS and 50% DMF at pH 4.7 and absorbance was read at 570 and 650 nm on an ELISA-PLATE READER (FLUOstar Omega, BMG LABTECH GmbH, Ortenberg, Germany). As a control (100% viability), cells that were grown in the presence of medium vehicle only with 1% DMSO were used.

[2] = tested on: K562 (leukemia) cells; experiment: MTT cytotoxicity assay, K562; type: cell-based, human; settings: for IC50: 48 h incubation with cells, MTT; for reduction of viability of K562 cells: initial screening, 100 μM, 48 h
Protocol: as §1, §2, §3, §4

[3] = tested on: MOLT-4 (leukemia) cells; experiment: MTT cytotoxicity assay, MOLT-4; type: cell-based, human; settings: for IC50: Homo sapiens, MOLT-4, 48 h incubation with cells, MTT; for reduction of viability of MOLT-4 cells: initial screening, 100 μM, 48 h
Protocol: as §1, §2, §3, §4

[4] = tested on: Human umbilical vein endothelial cells (HUVEC); experiment: MTT cytotoxicity assay, HUVEC; type: cell-based; settings: for IC50: Homo sapiens, HUVEC, 48 h incubation with cells, MTT; for cytotoxicity against human normal endothelial cells: initial screening, 100 μM, 48 h
Protocol: as §1, §2, §3, §4

[5] = tested on: caspase 3/7 in K562 cells; experiment: Apo-ONE Homogeneous Caspase-3/7 Assay in K562 cells; type: cell-based, human; settings: compound at 5 × IC50 (staurosporine 1 µM), 18 h, 1% DMSO normalized to 1.0
Protocol: We have measured the activity of caspases 3 and 7 (caspase 3/7), which are markers of programmed cell death. […] The activity of caspase 3/7 was measured using pro-fluorescent peptide substrate.
20 × 10^3 K562 cells were seeded on each well of 96-well plate in RPMI 1640 medium supplemented with 10% fetal calf serum and antibiotics. Cells were grown for 24 h at 37 °C and 5% CO2. The test compounds were dissolved in DMSO and added to the cell culture. The concentration of tested benzo[b]furans in cell culture was 5 × IC50.
Cells treated with 1% DMSO served as a negative control, while cells incubated with staurosporine (a strong inducer of apoptosis) were used as a positive control. Cells were exposed to test compounds for 18 h at 37 °C and 5% CO2. Subsequently, Apo-ONE® Homogeneous Caspase-3/7 Assay (Promega, Madison, WI, USA) measured the activity of caspase 3 and 7, according to the manufacturer’s instructions. Briefly, the cells were lysed and incubated for 1.5 h with profluorescent substrate for caspase 3 and 7. Next, fluorescence was read at an excitation wavelength of 485 nm and emission of 520 nm with FLUOStar Omega plate reader (BMG-Labtech, Ortenberg, Germany).
Figure 5 Activity of caspase 3 and 7 in K562 cells treated with the test benzofurans 1c, 1e, 2d, 3d, or staurosporine for 18 h. Apoptosis was determined by Apo-ONE® Homogeneous Caspase-3/7 Assay (Promega, Madison, WI, USA). Abbreviations: DMSO—K562 cells treated with 1% DMSO. The caspase activation level in cells exposed to 1% DMSO was normalized to 1.0. Mean values +/− SD are shown.

[6] = tested on: plasmid DNA (pcDNA3.1 HisC); experiment: Digestion of plasmid DNA with BamHI restriction nuclease; type: biochemical; settings: 100 µM, overnight 37 °C, then BamHI 3 h; agarose gel
Text: We hypothesized that a possible explanation of observed cytotoxicity might be due to an interaction of test benzofurans with genomic DNA (e.g., by intercalation). To verify this hypothesis, we investigated whether the test benzofurans have any effect on digestion of a plasmid DNA (pcDNA3.1 HisC) with endonuclease BamH1. pcDNA3.1 HisC contains a unique BamH1 restriction site which allows for plasmid linearization. Plasmid DNA exists in linear, superhelical, and circular forms that differ in electrophoretic mobility (Figure 6 lane 1). Plasmid DNA was converted to a linear form upon digestion with BamH1 (lane 2). […] In the presence of test compounds, pcDNA3.1 HisC was partially digested with Bam H1 restriction enzyme (Figure 6 lanes 4–7). Most of the plasmid DNA was converted to a linear form, however there is a circular form still present.
0.5 μg of plasmid DNA (pcDNAHisC, total length 5.5 kbp) containing a unique BamHI restriction site was dissolved in a 1× BamHI reaction buffer and then incubated overnight at 37 °C with the test compounds or daunorubicin, a strong intercalating agent, which was used as a positive control. The concentration of the test compounds and daunorubicin samples was 100 µM. In the next step, the reaction mixtures were digested with BamHI restriction endonuclease (2 U/μL) for 3 h at 37 °C. The total reaction volume was 10 μL. Products of the reaction were subjected to the 1% agarose gel electrophoresis in TBE buffer. The gel was stained with ethidium bromide and DNA fragments were visualized under a UV lamp (GBox, Syngene, Cambridge, UK).
Figure 6 Digestion of pcDNA3.1HisC (total length 5.5kbp) with BamH1 endonuclease. M—marker DNA; 1—not digested plasmid DNA; 2—plasmid DNA digested with BamH1 (DNA present in linear form); 3—plasmid DNA + daunorubicin + BamH1; 4—plasmid DNA + 1c + BamH1; 5—plasmid DNA + 2d + BamH1; 6—plasmid DNA + 1e + BamH1; and, 7—plasmid DNA + 3d + BamH1.

[7] = tested on: cancer cell lines; experiment: MTT cytotoxicity, cancer cell lines overall; type: cell-based, human; settings: for cytotoxic properties toward cancer cell lines: K562, MOLT-4, HeLa, MTT, 48 h
Protocol: as §1, §2, §3, §4

melting point: 223 to 224 °C
SMILES: COc1cc2c(C(N)=O)c(C)oc2cc1C(C)=O [Compound 3c, 6-Acetyl-5-methoxy-2-methylbenzofuran-3-carboxamide]
cytotoxic properties toward cancer cell lines [7]: did not show the cytotoxic properties; also recorded: loss of cytotoxic properties

melting point: 170 to 172 °C
SMILES: COC(=O)c1c(C)oc2cc(C(O)C(Br)Br)c(OC)cc12 (stereo not shown) [Compound 3a, Methyl 6-(2,2-dibromo-1-hydroxyethyl)-5-methoxy-2-methylbenzofuran-3-carboxylate]
IC50 [1]: 80 µM
reduction of viability of HeLa cells [1]: more than 50%
IC50 ([2]; Homo sapiens, K562, 48 h): 85 µM
reduction of viability of K562 cells [2]: more than 50%
IC50 [3]: 85 µM
reduction of viability of MOLT-4 cells [3]: more than 50%
IC50 [4]: 67 µM
cytotoxicity against human normal endothelial cells [4]: cytotoxic

melting point: 249 to 250 °C
SMILES: COc1cc2c(C(=O)O)c(C)oc2cc1C(C)=O [Compound 3b, 6-Acetyl-5-Methoxy-2-Methylbenzofuran-3-Carboxylic Acid]

More lines, now with the values behind:

SMILES: COc1cc2c(C)c(Br)oc2c(C(C)=O)c1OC [Compound 1d, 1-(2-Bromo-5,6-dimethoxy-3-methylbenzofuran-7-yl)ethanone]
melting point: 94 to 95 °C

SMILES: CC(=O)c1cc2oc(C)c(C(=O)O)c2c(Br)c1O [Compound 2e, 6-Acetyl-4-bromo-5-hydroxy-2-methylbenzofuran-3-carboxylic acid]
melting point: 196 to 197 °C

SMILES: COC(=O)c1oc2c(C(C)=O)c(OC)c(OC)cc2c1CBr [Compound 1c, Methyl 7-acetyl-3-(bromomethyl)-5,6-dimethoxybenzofuran-2-carboxylate]
IC50 [1]: 50 µM
reduction of viability of HeLa cells [1]: more than 50%
IC50 [2]: 25 µM
IC50 ([2]; Homo sapiens, K562, 48 h): < 50 µM
reduction of viability of K562 cells [2]: more than 50%
IC50 [3]: 180 µM
reduction of viability of MOLT-4 cells [3]: more than 50%
IC50 [4]: 30 µM
cytotoxicity against human normal endothelial cells [4]: cytotoxic
increase in the activity of caspase 3/7 [5]: about two-fold
inhibition of digestion of plasmid DNA with BamH1 / interaction with DNA [6]: to some extent, interact with DNA

SMILES: COc1cccc2c1C(=O)c1c(O)c3c(c(O)c1C2=O)C[C@@](O)(C(C)=O)C[C@@H]3O[C@H]1C[C@H](N)[C@H](O)[C@H](C)O1 [Daunorubicin, reference compound]
inhibition of digestion of plasmid DNA with BamH1 / interaction with DNA [6]: completely inhibited

SMILES: COC(=O)c1oc2c(C(C)=O)c(OC)c(OC)cc2c1C [Compound 1b, Methyl 7-acetyl-5,6-dimethoxy-3-methyl-1-benzofuran-2-carboxylate]
melting point: 98 to 100 °C

SMILES: CC(=O)c1cc2oc(C)c(C(N)=O)c2c(Br)c1O [Compound 2b, 6-Acetyl-4-bromo-5-hydroxy-2-methylbenzofuran-3-carboxamide]
cytotoxic properties toward cancer cell lines [7]: loss of cytotoxic properties

SMILES: COc1cc2c(C)c(C(=O)O)oc2c(C(C)=O)c1OC [Compound 1, 7-Acetyl-5,6-dimethoxy-3-methylbenzofuran-2-carboxylic acid]
melting point: 212 to 214 °C

SMILES: CN[C@@H]1C[C@H]2O[C@@](C)([C@@H]1OC)n1c3ccccc3c3c4c(c5c6ccccc6n2c5c31)C(=O)NC4 [staurosporine, reference compound]
increase in the activity of caspase 3/7 [5]: significantly increased

SMILES: CC(=O)c1cc2oc(C)c(C(N)=O)c2cc1O [Compound 2a, 6-Acetyl-5-hydroxy-2-methylbenzofuran-3-carboxamide]
cytotoxic properties toward cancer cell lines [7]: did not show the cytotoxic properties; also recorded: loss of cytotoxic properties

SMILES: COc1cc2c(C)c(Br)oc2c(C(=O)CBr)c1OC [Compound 1e, 2-Bromo-1-(2-bromo-5,6-dimethoxy-3-methylbenzofuran-7-yl)ethanone]
IC50 [1]: 28 µM
reduction of viability of HeLa cells [1]: more than 50%
IC50 [2]: 41 µM
IC50 ([2]; Homo sapiens, K562, 48 h): < 50 µM
reduction of viability of K562 cells [2]: more than 50%
IC50 [3]: 70 µM
reduction of viability of MOLT-4 cells [3]: more than 50%
IC50 [4]: 30 µM
cytotoxicity against human normal endothelial cells [4]: cytotoxic
increase in the activity of caspase 3/7 [5]: five-fold
inhibition of digestion of plasmid DNA with BamH1 / interaction with DNA [6]: to some extent, interact with DNA

SMILES: COC(=O)c1c(CBr)oc2cc(C(C)=O)c(OC)cc12 [Compound 3d, Methyl 6-acetyl-2-(bromomethyl)-5-methoxybenzofuran-3-carboxylate]
IC50 [1]: 35 µM
reduction of viability of HeLa cells [1]: more than 50%
IC50 [2]: 28 µM
IC50 ([2]; Homo sapiens, K562, 48 h): < 50 µM
reduction of viability of K562 cells [2]: more than 50%
IC50 [3]: 55 µM
reduction of viability of MOLT-4 cells [3]: more than 50%
IC50 [4]: 6 µM
cytotoxicity against human normal endothelial cells [4]: cytotoxic
increase in the activity of caspase 3/7 [5]: minimal, if any
decrease of cytotoxicity against human cancer cells compared to the lead compounds VIII-X ([7]; compared to lead compounds VIII-X): 5–10 folds

SMILES: COc1cc2c(C)c(C(N)=O)oc2c(C(C)=O)c1OC [Compound 1a, 7-Acetyl-5,6-dimethoxy-3-methylbenzofuran-2-carboxamide]
cytotoxic properties toward cancer cell lines [7]: did not show the cytotoxic properties; also recorded: loss of cytotoxic properties
melting point: 203 to 205 °C
